Measurements published in the supplement of paper PMC11208160.

Assay: recombinant UMI read abundance after kanamycin selection (control-corrected) (log10(CPM+1)); higher = more efficient recombination; extreme values may be limits of the assay; sequences stand for … in AGTGCAGAGAAAATCGGCCAGTTTTCTCTGCCTGCAGTCCGCATGCCGTGGGACCCCTTGGGTTCTAACCTGTTGCCTAGATTTATGCAGCGGACTGCCTTTCTCCCAAAGTGATAAACCGG…AGGTTGGTTTCACT; site = the 11-nt donor
Procedure, shortened: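 In a pooled Escherichia coli screen for the IS621 bridge recombinase, donor and donor-binding-loop pairs were each placed with a 12-nt UMI on a plasmid bearing a promoterless kanamycin gene. This library was co-electroporated with a target plasmid encoding a fixed target and T7-inducible recombinase, and cells were plated either on IPTG (0.07 mM) plus kanamycin or without selection, in two replicates each. Recombinant UMIs were PCR-amplified across the donor–target junction and sequenced, and counts were converted to CPM, averaged over replicates, scaled by control-derived factors and reported as log10(CPM+1).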
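Further: IS621 bridge recombinase in Escherichia coli cells against a fixed T5 target plasmid.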

AGGAAGACATGGACCGGTTTTCCCGGTAATCCGTATTTGTA (site AGGAAGACTTC)
recombinant UMI read abundance (log10): 0.521

AGGAAGACATGGACCGGTTTTCCCGGTAATCCGTATTTGTA (site AGGAAGACTTG)
recombinant UMI read abundance (log10): 2.11

AGGAAGACATGGACCGGTTTTCCCGGTAATCCGTATTTGTA (site AGGAAGACTTT)
recombinant UMI read abundance (log10): 1.8

AGGAAGGCATGGACCGGTTTTCCCGGTAATCCGTATTTGCA (site AGGAAGACTTG)
recombinant UMI read abundance (log10): 1.98

AGGAAGGCATGGACCGGTTTTCCCGGTAATCCGTATTTGCA (site AGGAAGCCTTG)
recombinant UMI read abundance (log10): 0

AGGAAGGCATGGACCGGTTTTCCCGGTAATCCGTATTTGCA (site AGGAAGGCTTG)
recombinant UMI read abundance (log10): 2.41

AGGAAGGCATGGACCGGTTTTCCCGGTAATCCGTATTTGCA (site AGGAAGTCTTG)
recombinant UMI read abundance (log10): 1.82

AGGAATGCATGGACCGGTTTTCCCGGTAATCCGTATTTGCA (site AGGAAGACTTG)
recombinant UMI read abundance (log10): 0

AGGAATGCATGGACCGGTTTTCCCGGTAATCCGTATTTGCA (site AGGAATGCTTG)
recombinant UMI read abundance (log10): 1.74

AGGACGGCATGGACCGGTTTTCCCGGTAATCCGTATTTGCA (site AGGAAGACTTG)
recombinant UMI read abundance (log10): 0

AGGACGGCATGGACCGGTTTTCCCGGTAATCCGTATTTGCA (site AGGACGGCTTG)
recombinant UMI read abundance (log10): 2.23

AGGACTACATGGACCGGTTTTCCCGGTAATCCGTATTTGAG (site AGGACTACTAT)
recombinant UMI read abundance (log10): 0.00837

AGGACTACATGGACCGGTTTTCCCGGTAATCCGTATTTGAG (site AGGACTACTCT)
recombinant UMI read abundance (log10): 1.54

AGGACTACATGGACCGGTTTTCCCGGTAATCCGTATTTGAG (site AGGACTACTGT)
recombinant UMI read abundance (log10): 0

AGGACTACATGGACCGGTTTTCCCGGTAATCCGTATTTGAG (site AGGACTACTTT)
recombinant UMI read abundance (log10): 0.493

AGGACTACATGGACCGGTTTTCCCGGTAATCCGTATTTGAT (site AGGACTACTAT)
recombinant UMI read abundance (log10): 1.77

AGGACTACATGGACCGGTTTTCCCGGTAATCCGTATTTGAT (site AGGACTACTCT)
recombinant UMI read abundance (log10): 0.00954

AGGACTACATGGACCGGTTTTCCCGGTAATCCGTATTTGAT (site AGGACTACTGT)
recombinant UMI read abundance (log10): 0

AGGACTACATGGACCGGTTTTCCCGGTAATCCGTATTTGAT (site AGGACTACTTT)
recombinant UMI read abundance (log10): 0.00536

AGGACTACATGGACCGGTTTTCCCGGTAATCCGTATTTGCT (site AGGACTACTAG)
recombinant UMI read abundance (log10): 2.5

AGGACTACATGGACCGGTTTTCCCGGTAATCCGTATTTGTC (site AGGACTACTGA)
recombinant UMI read abundance (log10): 2

AGGACTACATGGACCGGTTTTCCCGGTAATCCGTATTTGTC (site AGGACTACTGC)
recombinant UMI read abundance (log10): 0

AGGACTACATGGACCGGTTTTCCCGGTAATCCGTATTTGTC (site AGGACTACTGG)
recombinant UMI read abundance (log10): 0

AGGACTACATGGACCGGTTTTCCCGGTAATCCGTATTTGTC (site AGGACTACTGT)
recombinant UMI read abundance (log10): 1.37

AGGAGCACATGGACCGGTTTTCCCGGTAATCCGTATTTGCA (site AGGAAGACTTG)
recombinant UMI read abundance (log10): 0

AGGAGCACATGGACCGGTTTTCCCGGTAATCCGTATTTGCA (site AGGAGCACTTG)
recombinant UMI read abundance (log10): 2.37

AGGAGGCCATGGACCGGTTTTCCCGGTAATCCGTATTTGAG (site AGGAGGCCTCT)
recombinant UMI read abundance (log10): 0.233

AGGATCTCATGGACCGGTTTTCCCGGTAATCCGTATTTGTG (site AGGATCTCTCA)
recombinant UMI read abundance (log10): 2.92

AGGATTTCATGGACCGGTTTTCCCGGTAATCCGTATTTGCG (site AGGATTTCTCG)
recombinant UMI read abundance (log10): 1.32

AGGCAAACATGGACCGGTTTTCCCGGTAATCCGTATTTGTA (site AGGCAAACTTA)
recombinant UMI read abundance (log10): 1.9

AGGCAGACATGGACCGGTTTTCCCGGTAATCCGTATTTGCA (site AGGAAGACTTG)
recombinant UMI read abundance (log10): 0.346

AGGCAGACATGGACCGGTTTTCCCGGTAATCCGTATTTGCA (site AGGCAGACTTG)
recombinant UMI read abundance (log10): 2.49

AGGCAGACATGGACCGGTTTTCCCGGTAATCCGTATTTGCA (site AGGGAGACTTG)
recombinant UMI read abundance (log10): 0.0572

AGGCAGACATGGACCGGTTTTCCCGGTAATCCGTATTTGCA (site AGGTAGACTTG)
recombinant UMI read abundance (log10): 0.965

AGGCAGACATGGACCGGTTTTCCCGGTAATCCGTATTTGCT (site AGGAAGACTTG)
recombinant UMI read abundance (log10): 0

AGGCAGACATGGACCGGTTTTCCCGGTAATCCGTATTTGCT (site AGGCAGACTAG)
recombinant UMI read abundance (log10): 2.13

AGGCCGGCATGGACCGGTTTTCCCGGTAATCCGTATTTGGC (site AGGCCGGCTGC)
recombinant UMI read abundance (log10): 1.07

AGGCCGGCATGGACCGGTTTTCCCGGTAATCCGTATTTGGC (site CGGCCGGCTGC)
recombinant UMI read abundance (log10): 0

AGGCCGGCATGGACCGGTTTTCCCGGTAATCCGTATTTGGC (site GGGCCGGCTGC)
recombinant UMI read abundance (log10): 0

AGGCCGGCATGGACCGGTTTTCCCGGTAATCCGTATTTGGC (site TGGCCGGCTGC)
recombinant UMI read abundance (log10): 0

AGGCCTACATGGACCGGTTTTCCCGGTAATCCGTATTTGAC (site AGGACTACTGT)
recombinant UMI read abundance (log10): 0.528

AGGCCTACATGGACCGGTTTTCCCGGTAATCCGTATTTGAC (site AGGCCTACTGT)
recombinant UMI read abundance (log10): 2.67

AGGCCTACATGGACCGGTTTTCCCGGTAATCCGTATTTGAC (site AGGGCTACTGT)
recombinant UMI read abundance (log10): 0

AGGCCTACATGGACCGGTTTTCCCGGTAATCCGTATTTGAC (site AGGTCTACTGT)
recombinant UMI read abundance (log10): 0

AGGCGTTCATGGACCGGTTTTCCCGGTAATCCGTATTTGTG (site AGGCGTTCTCA)
recombinant UMI read abundance (log10): 1.09

AGGCTTTCATGGACCGGTTTTCCCGGTAATCCGTATTTGAC (site AGACTTTCTGT)
recombinant UMI read abundance (log10): 0.817

AGGCTTTCATGGACCGGTTTTCCCGGTAATCCGTATTTGAC (site AGCCTTTCTGT)
recombinant UMI read abundance (log10): 0.212

AGGCTTTCATGGACCGGTTTTCCCGGTAATCCGTATTTGAC (site AGGCTTTCTGT)
recombinant UMI read abundance (log10): 0.502

AGGCTTTCATGGACCGGTTTTCCCGGTAATCCGTATTTGAC (site AGTCTTTCTGT)
recombinant UMI read abundance (log10): 0

AGGCTTTCATGGACCGGTTTTCCCGGTAATCCGTATTTGGC (site AGGCTTTCTGC)
recombinant UMI read abundance (log10): 1.61

AGGGATCCATGGACCGGTTTTCCCGGTAATCCGTATTTGAG (site AGGGATCCTCT)
recombinant UMI read abundance (log10): 0.635

AGGGCAACATGGACCGGTTTTCCCGGTAATCCGTATTTGTT (site AGGGCAACTAA)
recombinant UMI read abundance (log10): 0.85

AGGGGTTCATGGACCGGTTTTCCCGGTAATCCGTATTTGTC (site AGGGGTTCTGA)
recombinant UMI read abundance (log10): 3.19

AGGGTACCATGGACCGGTTTTCCCGGTAATCCGTATTTGTA (site AGGGTACCTTA)
recombinant UMI read abundance (log10): 0.0065

AGGGTTACATGGACCGGTTTTCCCGGTAATCCGTATTTGGG (site AGGGTTACTCC)
recombinant UMI read abundance (log10): 0.175

AGGTACGCATGGACCGGTTTTCCCGGTAATCCGTATTTGCC (site AGGTACGCTGG)
recombinant UMI read abundance (log10): 2.36

AGGTCGGCATGGACCGGTTTTCCCGGTAATCCGTATTTGTA (site AGGTCGGCTTA)
recombinant UMI read abundance (log10): 1.01

AGGTTACCATGGACCGGTTTTCCCGGTAATCCGTATTTGTG (site AGGTTACCTCA)
recombinant UMI read abundance (log10): 0.0116

AGGTTACCATGGACCGGTTTTCCCGGTAATCCGTATTTGTG (site AGGTTCCCTCA)
recombinant UMI read abundance (log10): 0

AGGTTACCATGGACCGGTTTTCCCGGTAATCCGTATTTGTG (site AGGTTGCCTCA)
recombinant UMI read abundance (log10): 0.00949

AGGTTACCATGGACCGGTTTTCCCGGTAATCCGTATTTGTG (site AGGTTTCCTCA)
recombinant UMI read abundance (log10): 0.00461

AGGTTCCCATGGACCGGTTTTCCCGGTAATCCGTATTTGTT (site AGGTTCCCTAA)
recombinant UMI read abundance (log10): 0

AGGTTCCCATGGACCGGTTTTCCCGGTAATCCGTATTTGTT (site AGGTTCCCTCA)
recombinant UMI read abundance (log10): 0.0252

AGGTTCCCATGGACCGGTTTTCCCGGTAATCCGTATTTGTT (site AGGTTCCCTGA)
recombinant UMI read abundance (log10): 0

AGGTTCCCATGGACCGGTTTTCCCGGTAATCCGTATTTGTT (site AGGTTCCCTTA)
recombinant UMI read abundance (log10): 0

AGGTTCGCATGGACCGGTTTTCCCGGTAATCCGTATTTGTG (site AGGTTCACTCA)
recombinant UMI read abundance (log10): 0.217

AGGTTCGCATGGACCGGTTTTCCCGGTAATCCGTATTTGTG (site AGGTTCCCTCA)
recombinant UMI read abundance (log10): 0.015

AGGTTCGCATGGACCGGTTTTCCCGGTAATCCGTATTTGTG (site AGGTTCGCTCA)
recombinant UMI read abundance (log10): 0.666

AGGTTCGCATGGACCGGTTTTCCCGGTAATCCGTATTTGTG (site AGGTTCTCTCA)
recombinant UMI read abundance (log10): 0

AGGTTGACATGGACCGGTTTTCCCGGTAATCCGTATTTGCG (site AGGTTGACTCG)
recombinant UMI read abundance (log10): 2

AGTAAATCATGGACCGGTTTTCCCGGTAATCCGTATTTGGG (site GCCGTTCCTGA)
recombinant UMI read abundance (log10): 0

AGTAACACATGGACCGGTTTTCCCGGTAATCCGTATTTGCA (site AGGAAGACTTG)
recombinant UMI read abundance (log10): 0

AGTAACACATGGACCGGTTTTCCCGGTAATCCGTATTTGCA (site AGTAACACTTG)
recombinant UMI read abundance (log10): 2.13

AGTAACGCATGGACCGGTTTTCCCGGTAATCCGTATTTGCA (site AGTAACGCTTG)
recombinant UMI read abundance (log10): 2.29

AGTACCACATGGACCGGTTTTCCCGGTAATCCGTATTTGTT (site AGTACCACTAA)
recombinant UMI read abundance (log10): 0.274
